Experimental data taken from patent US20030186845A1, “Compositions for preventing urinary calculus” (priority 2000, published 2003).

Legend:
male rats [1] = test: Calculus prevention effect by chelating agents (repeated intravenous administration, 2 weeks); assay type: in vivo; conditions: for Calculi / Hyperplasia of vesical transitional epithelium / Urinary occult blood: mixed with R-CHI3-DTPA-Gd 0.33 mmol/kg i.v.; for Calculi / Hyperplasia of vesical transitional epithelium / Effect of inhibiting production of calculi: male rats; for Urinary occult blood: occurrences/total daily inspections for 14 days; for Effect of inhibiting production of calculi: specimens of R-CHI3-DTPA-Gd mixed with chelating agent, summary in words
Protocol: To R-CHI3-DTPA-Gd, was added diethylenetriaminepentaacetic acid (DTPA), its calcium complex, or calcium complex of ethylenediaminetetraacetic acid (EDTA). Using them as specimens, toxicity studies by repeated intravenous administration were conducted on male rats for 2 weeks. A group, which is called DTPA-10 group, was administered with a specimen of R-CHI3-DTPA-Gd mixed with DTPA in an amount equivalent to 10 mmol per 500 mmol of the DTPA-Gd portion of the R-CHI3-DTPA-Gd; a group, which is called DTPA-Ca-10 group, was administered with a specimen mixed with calcium complex of DTPA in an amount equivalent to 10 mmol; a group, which is called EDTA-Ca-1 group, was administered with a specimen mixed with calcium complex of EDTA in an amount equivalent 1 mmol; and a group, which is called EDTA-Ca-10 group, was administered with a specimen mixed with calcium complex of EDTA in an amount equivalent to 10 mmol. DTPA and others were mixed with R-CHI3-DTPA-Gd immediately before administration. As control groups, were set up a group that was administered with a physiological saline and a group that was free from a chelating agent (i.e., administered with R-CHI3-DTPA-Gd only). Except the physiological saline-administered group, the dose as R-CHI3-DTPA-Gd was 0.33 mmol/kg.
(The chelating agent-free group is estimated to include individuals that discharged calculi from their urinary bladders, judging from the hyperplasia of vesical transitional epithelium and the frequency of urinary occult blood.)

male rats [2] = test: Calculus prevention effect by DTPA (repeated intravenous administration, 2 weeks, two lots); assay type: in vivo; conditions: for Urinary occult blood: occurrences/inspections
Protocol: Toxicity studies by repeated intravenous administration were conducted on male rats for 2 weeks using, as a specimen, R-CHI3-DTPA-Gd to which DTPA was added. In this test, two lots (hereinafter called lot #1 and lot #2) of R-CHI3-DTPA-Gd were provided, and the following administered groups were set up. […] As control groups, were set up a group that was administered with a physiological saline and a group that was free from a chelating agent (i.e., administered with […] of lot (1) only). Except the physiological saline-administered group, the dose as R-CHI3-DTPA-Gd was 0.33 mmol/kg.

[3] = chelating agent 10 mmol per 500 mmol DTPA-Gd portion
[4] = DTPA 1 mmol per 500 mmol DTPA-Gd portion, R-CHI3-DTPA-Gd lot #1, 0.33 mmol/kg i.v.
[5] = DTPA 1 mmol per 500 mmol DTPA-Gd portion, R-CHI3-DTPA-Gd lot #2, 0.33 mmol/kg i.v.
[6] = DTPA 1.3 mmol per 500 mmol DTPA-Gd portion, R-CHI3-DTPA-Gd lot #2, 0.33 mmol/kg i.v.
[7] = DTPA 3 mmol per 500 mmol DTPA-Gd portion, R-CHI3-DTPA-Gd lot #1, 0.33 mmol/kg i.v.
[8] = DTPA 10 mmol per 500 mmol DTPA-Gd portion, R-CHI3-DTPA-Gd lot #2, 0.33 mmol/kg i.v.
[9] = chelating agent 1 mmol per 500 mmol DTPA-Gd portion

O=C(O)CN(CCN(CC(=O)O)CC(=O)O)CCN(CC(=O)O)CC(=O)O [DTPA, diethylenetriaminepentaacetic acid]
Calculi (male rats [1]; [3]): 0/10
Hyperplasia of vesical transitional epithelium (male rats [1]; [3]): 0/10
Urinary occult blood (male rats [1]; [3]): 8/140
Effect of inhibiting production of calculi (male rats [1]): significant effect
Calculi (male rats [2]; [4]): 5/10
Hyperplasia of vesical transitional epithelium (male rats [2]; [4]): 7/10
Urinary occult blood (male rats [2]; [4]): 24/140
Calculi (male rats [2]; [5]): 5/10
Hyperplasia of vesical transitional epithelium (male rats [2]; [5]): 6/10
Urinary occult blood (male rats [2]; [5]): 27/140
Calculi (male rats [2]; [6]): 5/10
Hyperplasia of vesical transitional epithelium (male rats [2]; [6]): 7/10
Urinary occult blood (male rats [2]; [6]): 26/140
Calculi (male rats [2]; [7]): 5/10
Hyperplasia of vesical transitional epithelium (male rats [2]; [7]): 5/10
Urinary occult blood (male rats [2]; [7]): 17/140
Calculi (male rats [2]; [8]): 3/10
Hyperplasia of vesical transitional epithelium (male rats [2]; [8]): 4/10
Urinary occult blood (male rats [2]; [8]): 19/140

O=C([O-])CN(CCN(CCN(CC(=O)[O-])CC(=O)O)CC(=O)O)CC(=O)O.[Ca+2] [DTPA-Ca]
Calculi (male rats [1]; [3]): 0/10
Hyperplasia of vesical transitional epithelium (male rats [1]; [3]): 0/10
Urinary occult blood (male rats [1]; [3]): 3/140
Effect of inhibiting production of calculi (male rats [1]): significant effect

O=C([O-])CN(CCN(CC(=O)[O-])CC(=O)O)CC(=O)O.[Ca+2] [EDTA-Ca]
Calculi (male rats [1]; [9]): 4/10
Hyperplasia of vesical transitional epithelium (male rats [1]; [9]): 2/10
Urinary occult blood (male rats [1]; [9]): 17/140
Calculi (male rats [1]; [3]): 1/10
Hyperplasia of vesical transitional epithelium (male rats [1]; [3]): 1/10
Urinary occult blood (male rats [1]; [3]): 6/140
Effect of inhibiting production of calculi (male rats [1]): week effect
